This note sets out measurements from US11440906B2, “Biguanide derivatives and their rearrangement products for use in the treatment of cancer” (CENTRE NATIONAL DE LA RECHERCHE SCIENTIFIQUE, priority 2017, dated 2022).

Molecules are shown by their SMILES.

The subject of data set [1] is Different melanoma cell lines with various mutations. The data set is described as follows: Viability test with CRO15, melanoma cell lines with various mutations. The format is cell-based, human. The note with it: 5 μM, 48 hours; FIG. 1C. From the text:
Different melanoma cell lines were purchased from the American Tissue Culture Collection: A375 and WM9 cells are mutated on B-Raf, CDKN2A and PTEN proteins; SKmel28 cells are mutated on B-Raf and P53 proteins; 1205Lu cells are mutated on B-Raf and PTEN proteins; G-361 cells are mutated on B-Raf and CDKN2A proteins; C8161 cells are mutated on B-Raf and K-Ras proteins; WM3912 cells are mutated on B-Raf and CDKN2A proteins; MeWo cells are mutated on P53 and CDKN2A proteins; WM3918 presents no mutations on characteristic proteins.
(§1) For trypan blue staining, […] of cells (melanoma and normal human cells) were aseptically transferred to a 1.5 mL clear Eppendorf tube and incubated for 3 min at room temperature with an equal volume of 0.4% trypan blue solution. Viable cells were counted and the results are expressed as the percentage of the value of control cells. All the experiments are performed 3 times in triplicate.
Different melanoma cell lines with various mutations, patient cells with various mutations and normal human cells, were treated with 5 μM of CRO15 for 48 hours or DMSO (Control). At the end of stimulation, viable cells were counted using the trypan blue dye exclusion method. The results are normalized as percentages compare to the control and data means±SEM of three independent experiments performed in triplicate *p<0.05; **p<0.01; ***p<0.001. […]

The test system of a further data set is patient melanoma cells. The data set is described as follows: Viability test with CRO15, patient melanoma cells. The format is cell-based, human. The following applies: 5 μM, 48 hours; FIG. 1D. The procedure:
(§2) Fresh sterile tissues were obtained from surgical waste from patients diagnosed with metastatic melanoma at the Nice CHU hospital. Epidermal cell suspensions were obtained from foreskins of Caucasian children by overnight digestion in phosphate-buffered saline containing 0.5% dispase grade II at 4° C., followed by a 20 min digestion with 0.05% trypsin-0.02% EDTA in phosphate-buffered saline (V/V) at 37° C. Human primary melanocytes were grown in MCDB153 medium supplemented with 2% FCS, 0.4 μg/ml hydrocortisone, 5 μg/ml insulin, 16 nM phorbol-12 myristate 13-acetate, 1 ng/ml basic fibroblast growth factor, 10 μg/ml bovine pituitary extract and penicillin/streptomycin (100 U/ml/50 μg/ml). […]
(§3) For trypan blue staining, […] of cells (melanoma and normal human cells) were aseptically transferred to a 1.5 mL clear Eppendorf tube and incubated for 3 min at room temperature with an equal volume of 0.4% trypan blue solution. Viable cells were counted and the results are expressed as the percentage of the value of control cells. […]
(§4) Different melanoma cell lines with various mutations, patient cells with various mutations and normal human cells, were treated with 5 μM of CRO15 for 48 hours or DMSO (Control). At the end of stimulation, viable cells were counted using the trypan blue dye exclusion method. […]

In another data set the test system is normal human cells. The data set is described as follows: Viability test with CRO15, normal human cells. The format is cell-based. The following applies: 5 μM, 48 hours; FIG. 1E. The procedure: as §2, §3, §4
Data set [2] relates to A375 resistant melanoma cells. The data set is described as follows: Viability test of CRO15 on resistant melanoma cells. It is filed as cell-based, human. The note with it: 48 hr, FIG. 4A. The procedure:
Resistant melanoma cell lines A375 and SKMel28 were a gift from Professor P. Marchetti and described in Corazao-Rozas et al. (2013). Cells were grown in RPMI 1640 or in DMEM supplemented with 10% of Foetal Calf Serum (FCS) and penicillin/streptomycin (100 U/ml/[…]) at 37° C. and 5% CO2.
as §1
A375 sensitive and resistant melanoma cells were treated with 5 μM of CRO15 for 48 hr or with 5 μM of PLX4032 for 48 hr or with DMSO (Control). At 48 hours, viable cells were counted using the trypan blue dye exclusion method. The results are normalized as percentages compare to the control and data means±SEM of three independent experiments performed in triplicate *p<0.05; **p<0.01; ***p<0.001.

The subject of another data set is Melanoma cell line DR6. The data set is described as follows: Viability test on double resistant cells to BRAF and MEK inhibitors. It is filed as cell-based. The note with it: 5 μM or 10 μM, 24 hours; FIG. 5. The procedure: as §1
Melanoma cell line DR6 resistant cells to B-Raf inhibitor (Vemurafenib=PLX4032) and to MEK inhibitor (Cobimetinib) were treated with DMSO (control), with 5 μM or 10 μM of CRO15 or with a combination of 1 μM of vemurafenib and 0.5 μM of cobimetinib. After 24 hours of stimulation, viable cells were counted using the trypan blue dye exclusion method. The results are normalized as percentages compare to the control. Error bars represents ±SEM of triplicate.

A further data set has as its system AMPK. The data set is described as follows: Western blot assays, A375 Sensitive cells. The following applies: 5 μM, 6 hr, 12 hr or 24 hr; FIG. 2. It is filed as cell-based, human. The procedure:
Western blot analyses were performed as described (Lehraiki et al., 2014). Proteins were extracted in buffer containing 50 mmol/l Tris-HCl (pH 7.5), 15 mmol/1, NaCl, 1% Triton X-100, and 1× protease and phosphatase inhibitors. Briefly, cell lysates […] were separated by SDS-PAGE, transferred onto a polyvinylidene fluoride membrane (Millipore), and then exposed to the appropriate antibodies. Proteins were visualized with the ECL System from Amersham. The western blot analyses shown are representative of at least three independent experiments.
Western Blot analysis: A375 Sensitive cells were treated with 5 μM of CRO15 for different time (6 hr, 12 hr or 24 hr) or with DMSO (Control) for 24 hr.
(In general: In western blotting, separated proteins are transferred to a membrane and probed.)

With `Nc1nc(Nc2ccccc2SSc2ccccc2Nc2nc(N)nc(C(Cl)(Cl)Cl)n2)nc(C(Cl)(Cl)Cl)n1` [CRO15, N2,N2′-(disulfanediylbis(2,1-phenylene))bis(6-(trichloromethyl)-1,3,5-triazine-2,4-diamine)], the “viability of different melanoma cell lines with various mutations” value in data set [1] is “induces a decrease of the viability”. Further, the “viability of patient melanoma cells” value with patient melanoma cells is recorded as “induces a decrease of the viability”. In addition, the “viability of normal cells (toxicity)” value with normal human cells is given as “not toxic for normal cells”. In data set [2] (5 μM each, A375 sensitive and resistant), the “decrease of the viability compared with PLX4032” value is on record as “more important with CRO15 than with PLX4032”. Further, in data set [2] (5 μM), the “cell viability, A375 resistant melanoma cells” value was “induces a decrease of the cell viability”. In the data set on Melanoma cell line DR6, the “cell viability of DR6 cells” value is recorded as “induces a decrease of the cell viability”. In addition, the “activation of AMPK (western blot)” value with AMPK was “induces an activation of AMPK”.
